The target of data set [1] is T1, Ssal-KRED (Sporobolomyces salmonicolor, UniProt Q9UUN9).
T1 construct: N-terminal 6xHis-tag, pET28b(+), purified; recombinant from E. coli
T1 sequence (Q9UUN9 2-343): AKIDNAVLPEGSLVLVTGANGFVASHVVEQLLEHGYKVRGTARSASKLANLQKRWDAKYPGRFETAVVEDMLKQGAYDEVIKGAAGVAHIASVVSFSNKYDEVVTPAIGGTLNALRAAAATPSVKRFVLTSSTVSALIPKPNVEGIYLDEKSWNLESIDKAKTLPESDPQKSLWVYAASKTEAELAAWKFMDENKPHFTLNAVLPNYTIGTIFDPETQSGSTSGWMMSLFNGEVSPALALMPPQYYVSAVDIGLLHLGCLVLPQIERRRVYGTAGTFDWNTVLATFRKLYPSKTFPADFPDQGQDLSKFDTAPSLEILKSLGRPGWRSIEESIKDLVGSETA
As to the kind of experiment: UV assay at […] nm, Michaelis-Menten fit. Type of data set: biochemical. As to conditions: apparent; NADP+/iPrOH as hydride donor; purified His-tagged enzyme; read-out: app. KM.

Data set [2] addresses T2, Ssal-KRED (Sporobolomyces salmonicolor, UniProt Q9UUN9, F97W/T134V/S224A/A238K/L241M/M242W/Q245S/Y246G/L316M/T342M).
T2 construct: N-terminal 6xHis-tag, pET28b(+), purified; recombinant from E. coli
T2 sequence (Q9UUN9 2-343 F97W/T134V/S224A/A238K/L241M/M242W/Q245S/Y246G/L316M/T342M): T1 sequence (Q9UUN9 2-343) with F96W, T133V, S223A, A237K, L240M, M241W, Q244S, Y245G, L315M, T341M
As to the kind of experiment: UV assay at […] nm, Michaelis-Menten fit. Type of data set: biochemical. The settings on record: apparent; NADP+/iPrOH as hydride donor; purified His-tagged enzyme; read-out: app. KM.

Data set [3] addresses T3, Ssal-KRED (Sporobolomyces salmonicolor, UniProt Q9UUN9, F97W/L241M/M242W/Q245S).
T3 construct: N-terminal 6xHis-tag, pET28b(+), purified; recombinant from E. coli
T3 sequence (Q9UUN9 2-343 F97W/L241M/M242W/Q245S): T1 sequence (Q9UUN9 2-343) with F96W, L240M, M241W, Q244S
The experiment in a line: UV assay at […] nm, Michaelis-Menten fit. Type of data set: biochemical. As to conditions: apparent; NADP+/iPrOH as hydride donor; purified His-tagged enzyme; read-out: app. KM.

Data set [4] concerns the target T4, Ssal-KRED (Sporobolomyces salmonicolor, UniProt Q9UUN9, F97W/S224A/A238K/L241M/M242W/Q245S/Y246G/L316M/T342M).
T4 construct: N-terminal 6xHis-tag, pET28b(+), purified; recombinant from E. coli
T4 sequence (Q9UUN9 2-343 F97W/S224A/A238K/L241M/M242W/Q245S/Y246G/L316M/T342M): T1 sequence (Q9UUN9 2-343) with F96W, S223A, A237K, L240M, M241W, Q244S, Y245G, L315M, T341M
The experiment in a line: UV assay at […] nm, Michaelis-Menten fit. Type of data set: biochemical. The settings on record: apparent; NADP+/iPrOH as hydride donor; purified His-tagged enzyme; read-out: app. KM.

In data set [5] the target is T5, Ssal-KRED (Sporobolomyces salmonicolor, UniProt Q9UUN9, F97W/A238K/L241M/M242W/Q245S/L316M/T342M).
T5 construct: N-terminal 6xHis-tag, pET28b(+), purified; recombinant from E. coli
T5 sequence (Q9UUN9 2-343 F97W/A238K/L241M/M242W/Q245S/L316M/T342M): T1 sequence (Q9UUN9 2-343) with F96W, A237K, L240M, M241W, Q244S, L315M, T341M
As to the kind of experiment: UV assay at […] nm, Michaelis-Menten fit. Type of data set: biochemical. The settings on record: apparent; NADP+/iPrOH as hydride donor; purified His-tagged enzyme; read-out: app. KM.

Data set [6] deals with T6, Ssal-KRED (Sporobolomyces salmonicolor, UniProt Q9UUN9, F97W/L241M/M242W/Q245S/L316M/T342M).
T6 construct: N-terminal 6xHis-tag, pET28b(+), purified; recombinant from E. coli
T6 sequence (Q9UUN9 2-343 F97W/L241M/M242W/Q245S/L316M/T342M): T1 sequence (Q9UUN9 2-343) with F96W, L240M, M241W, Q244S, L315M, T341M
The experiment in a line: UV assay at […] nm, Michaelis-Menten fit. Type of data set: biochemical. The settings on record: apparent; NADP+/iPrOH as hydride donor; purified His-tagged enzyme; read-out: app. KM.

Substrate in the data set “purified protein”: C[C@@H]1CC(=O)c2ncnc(N3CCN(C(=O)OC(C)(C)C)CC3)c21
The experiment in a line: purified protein. Type of data set: biochemical, Sporobolomyces salmonicolor. As to conditions: apparent; NADP+/iPrOH as hydride donor; purified His-tagged enzyme; substrate saturation was not reached.

Numbering of substitutions follows the chain as printed. Numbers in names are those of the source.

Our source for the Km, kcat and kcat/Km values is PMC10902378, “Effective engineering of a ketoreductase for the biocatalytic synthesis of an ipatasertib precursor” (Communications Chemistry, 2024).

Take `C[C@@H]1CC(=O)c2ncnc(N3CCN(C(=O)OC(C)(C)C)CC3)c21` [1a, ketone 1a]: the Km (as a rule, the substrate concentration at which the rate is half of its maximum) came to 11.9 ± 1.1 µM at Ssal-KRED [1]; 144 ± 5.5 µM on Ssal-KRED [2]; 163 ± 7.8 µM on Ssal-KRED [3]; 472 ± 34.6 µM at Ssal-KRED [4]; 300 ± 7.9 µM at Ssal-KRED [5]; 175 ± 9.9 µM on Ssal-KRED [6].

B1: Ssal-KRED (Sporobolomyces salmonicolor; A238K/F97W/L241M/L316M/M242W/Q245S/T342M/Y246G) (protein)
chain: T1 sequence (Q9UUN9 2-343) with F96W, A237K, L240M, M241W, Q244S, Y245G, L315M, T341M
notes: N-terminal 6xHis-tag, pET28b(+), purified; recombinant from E. coli
For the molecule B1, in the data set “purified protein”, the Km is 1668 ± 103 µM; the kcat (in general, the number of substrate molecules converted per active site and unit of time at saturation) was determined as 0.763 ± 0.04 s⁻¹; the kcat/Km (usually the turnover number divided by the Michaelis constant) was found to be 458 M⁻¹ s⁻¹.
